Holding throughout (type): cell-based
One test has as its system Pseudomonas #28. Briefly: In vitro minimal inhibitory concentration, Pseudomonas #28. The conditions noted are these: Pseudomonas #28; in vitro; read-out: Minimal Inhibitory Concentration.
The test system of the next test is Strep. fec. MGH 2. Briefly: In vitro minimal inhibitory concentration, Strep. fec. MGH 2.
The subject of another test is Pseudomonas BRK 12-4-4. Briefly: In vitro minimal inhibitory concentration, Pseudomonas BRK 12-4-4. The note with it: BRK1244.
The test system of another test is Klebs. Pneum. MGH 2. Put plainly: In vitro minimal inhibitory concentration, Klebs. Pneum. MGH 2.
The subject of another test is Pseudomonas UI 18. Briefly: In vitro minimal inhibitory concentration, Pseudomonas UI 18. The note with it: UI18.
In a further test the test system is Staph UC76. Briefly: In vitro minimal inhibitory concentration, Staph UC76.
The subject of the next test is Entero Cloac. IM 11. Put plainly: In vitro minimal inhibitory concentration, Entero Cloac. IM 11.
A further test deals with E. Coli. Vogel. Briefly: In vitro minimal inhibitory concentration, E. Coli. Vogel. The note with it: Escherichia coli.
For the next test, the system named is Serr. Mar. IMM 16. Briefly: In vitro minimal inhibitory concentration, Serr. Mar. IMM 16.
The test system of a further test is Staph S 18713. Briefly: In vitro minimal inhibitory concentration, Staph S 18713.
Another test deals with Prot Vulg. Briefly: In vitro minimal inhibitory concentration, Prot Vulg.
A further test deals with E. Coli. Brig. Put plainly: In vitro minimal inhibitory concentration, E. Coli. Brig. The conditions noted are these: Escherichia coli.

Molecules are shown by their SMILES. ≈ marks a conversion by molar mass, not a printed value. Some results are limits rather than exact numbers.

As to `CC(=O)NC(C)C(=O)Nc1ccc(-c2ccc(C(=O)N[C@@H](C(=O)NC3C(=O)N4C(C(=O)O)=C(CSc5nnnn5C)CSC34)c3ccccc3)c(=O)[nH]2)cc1` (mixture of isomers) [Example 18, N-[6-[4-(N-Acetyl-DL-alanylamino)phenyl]-1,2-dihydro-3-oxonicotinyl]-7-[D-2-amino-2-phenylacetamido]-3-[[(1-methyl-1H-tetrazol-5-yl)thio]methyl]-3-cephem-4-carboxylic acid], the MIC with Pseudomonas #28 was 6.3 µg/mL; against Strep. fec. MGH 2, 25 µg/mL; in the test on Pseudomonas BRK 12-4-4, 12.5 µg/mL; in the test on Klebs. Pneum. MGH 2, 0.8 µg/mL; in the test with Pseudomonas UI 18, 6.3 µg/mL; with Staph UC76, 0.4 µg/mL. Further, the MIC against Entero Cloac. IM 11 came to 6.3 µg/mL; against E. Coli. Vogel it was 0.4 µg/mL; against Serr. Mar. IMM 16 it was 12.5 µg/mL; with Staph S 18713 it was 3.1 µg/mL; against Prot Vulg. it was 25 µg/mL; in the test with E. Coli. Brig, 3.1 µg/mL.

Turning to `CC(=O)NC(C)C(=O)Nc1ccc(-c2ccc(C(=O)N[C@@H](C(=O)NC3C(=O)N4C(C(=O)O)=C(CSc5nnc(C)s5)CSC34)c3ccccc3)c(=O)[nH]2)cc1` (mixture of isomers) [Example 22, N-[6-[4-(N-Acetyl-DL-alanylamino)phenyl]-1,2-dihydro-2-oxonicotinyl]-7-[D-2-amino-2-phenylacetamido]-3-[([4-methyl-1,3,4-thiadiazol-2-yl]thio)methyl]-3-cephem-4-carboxylic acid], the MIC is 12.5 µg/mL with Pseudomonas #28; 12.5 µg/mL against Strep. fec. MGH 2; 12.5 µg/mL against Pseudomonas BRK 12-4-4; 3.1 µg/mL in the test on Klebs. Pneum. MGH 2; 12.5 µg/mL against Pseudomonas UI 18; 0.4 µg/mL against Staph UC76. Also, the MIC against Entero Cloac. IM 11 turned out to be 12.5 µg/mL; in the test on E. Coli. Vogel, 1.6 µg/mL; in the test on Serr. Mar. IMM 16, 25 µg/mL; against Staph S 18713, 6.3 µg/mL; with Prot Vulg., 12.5 µg/mL; with E. Coli. Brig, 6.3 µg/mL.

As for `CC(=O)NCCCCC(NC(C)=O)C(=O)Nc1ccc(-c2ccc(C(=O)N[C@@H](C(=O)NC3C(=O)N4C(C(=O)O)=C(CSc5nnnn5C)CSC34)c3ccccc3)c(=O)[nH]2)cc1` (mixture of isomers) [Example 26, N-[6-[4-(N,N'-Diacetyl-DL-lysylamino)phenyl)-1,2-dihydro-2-oxonicotinyl]-7-[D-2-amino-2-phenylacetamido]3-[[(1-methyl-1H-tetrazol-5-yl)thio]methyl]-3-cephem-4-carboxylic acid], the MIC in the test with Pseudomonas #28 is 12.5 µg/mL; against Strep. fec. MGH 2, 50 µg/mL; in the test on Pseudomonas BRK 12-4-4 it was 12.5 µg/mL; in the test with Klebs. Pneum. MGH 2, 1.6 µg/mL; in the test on Pseudomonas UI 18, 12.5 µg/mL; against Staph UC76, 1.6 µg/mL. For the same compound, the MIC against Entero Cloac. IM 11 came out at 6.3 µg/mL; against E. Coli. Vogel, 1.6 µg/mL; in the test with Serr. Mar. IMM 16, 50 µg/mL; against Staph S 18713, 6.3 µg/mL; in the test with Prot Vulg., 25 µg/mL; in the test on E. Coli. Brig it was 12.5 µg/mL.

With `CC(=O)NCCCCC(NC(C)=O)C(=O)Nc1ccc(-c2ccc(C(=O)N[C@@H](C(=O)NC3C(=O)N4C(C(=O)O)=C(COC(C)=O)CSC34)c3ccccc3)c(=O)[nH]2)cc1` (mixture of isomers) [Example 27, N-[6-[4-(N,N'-Diacetyl-DL-lysylamino)phenyl]-1,2-dihydro-2-oxonicotinyl]-7-[D-2-amino-2-phenylacetamido]-3-acetoxymethyl-3-cephem-4-carboxylic acid], the MIC with Pseudomonas #28 is 3.1 µg/mL; against Strep. fec. MGH 2, 25 µg/mL; against Pseudomonas BRK 12-4-4 it was 12.5 µg/mL; against Klebs. Pneum. MGH 2 it was 6.3 µg/mL; in the test with Pseudomonas UI 18, 6.3 µg/mL; in the test with Staph UC76, 1.6 µg/mL. The MIC against Entero Cloac. IM 11 is 12.5 µg/mL; in the test on E. Coli. Vogel it was 3.1 µg/mL; with Serr. Mar. IMM 16 it was more than 50 µg/mL; in the test with Staph S 18713, 12.5 µg/mL; against Prot Vulg., 50 µg/mL; against E. Coli. Brig, 25 µg/mL.

Turning to `CC(=O)N[C@H](C)C(=O)Nc1ccc(-c2ccc(C(=O)N[C@@H](C(=O)NC3C(=O)N4C(C(=O)O)=C(CSc5nnnn5CC(=O)O)CSC34)c3ccccc3)c(=O)[nH]2)cc1` (stereo partly drawn) [Example 1, N-[6-[4-(N-Acetyl-D-alanylamino)phenyl]-1,2-dihydro-2-oxonicotinyl]-7-[D-2-amino-2-phenylacetamido]-3-[[(1-carboxymethyl-1H-tetrazol-5-yl)thio]methyl]-3-cephem-4-carboxylic acid], the MIC is 6.3 µg/mL (≈ 7.58 µM) in the test with Pseudomonas #28; more than 50 µg/mL in the test with Strep. fec. MGH 2; 12.5 µg/mL (≈ 15 µM) with Pseudomonas BRK 12-4-4; 3.1 µg/mL (≈ 3.73 µM) in the test on Klebs. Pneum. MGH 2; 6.3 µg/mL (≈ 7.58 µM) in the test with Pseudomonas UI 18; 3.1 µg/mL (≈ 3.73 µM) in the test with Staph UC76. Also, the MIC with Entero Cloac. IM 11 was 3.1 µg/mL (≈ 3.73 µM); in the test with E. Coli. Vogel, 0.4 µg/mL (≈ 0.481 µM); in the test on Serr. Mar. IMM 16, 12.5 µg/mL (≈ 15 µM); in the test with Staph S 18713, 12.5 µg/mL (≈ 15 µM); in the test on Prot Vulg., 3.1 µg/mL (≈ 3.73 µM); with E. Coli. Brig it was 6.3 µg/mL (≈ 7.58 µM).

In the case of `CC(=O)N1CCC[C@H]1C(=O)Nc1ccc(-c2ccc(C(=O)N[C@@H](C(=O)NC3C(=O)N4C(C(=O)O)=C(CSc5nnnn5C)CSC34)c3ccccc3)c(=O)[nH]2)cc1` (stereo partly drawn) [Example 2, N-[6-[4-(N-Acetyl-L-prolylamino)phenyl]-1,2-dihydro-2-oxonicotinyl]-7-[D-2-amino-2-phenylacetamido]-3-[[(1-methyl-1H-tetrazol-5-yl)thio]methyl]-3-cephem-4-carboxylic acid], the MIC stood at 12.5 µg/mL (≈ 15.4 µM) in the test on Pseudomonas #28; 25 µg/mL (≈ 30.8 µM) against Strep. fec. MGH 2; 25 µg/mL (≈ 30.8 µM) in the test on Pseudomonas BRK 12-4-4; 1.6 µg/mL (≈ 1.97 µM) in the test with Klebs. Pneum. MGH 2; 12.5 µg/mL (≈ 15.4 µM) against Pseudomonas UI 18; 0.8 µg/mL (≈ 0.984 µM) with Staph UC76. Besides, the MIC against Entero Cloac. IM 11 was 6.3 µg/mL (≈ 7.75 µM); in the test on E. Coli. Vogel, 1.6 µg/mL (≈ 1.97 µM); against Serr. Mar. IMM 16, 12.5 µg/mL (≈ 15.4 µM); with Staph S 18713, 3.1 µg/mL (≈ 3.81 µM); in the test with Prot Vulg., 25 µg/mL (≈ 30.8 µM); against E. Coli. Brig, 6.3 µg/mL (≈ 7.75 µM).

Regarding `CC(=O)N[C@@H](C)C(=O)Nc1ccc(-c2ccc(C(=O)N[C@@H](C(=O)NC3C(=O)N4C(C(=O)O)=C(COC(C)=O)CSC34)c3ccccc3)c(=O)[nH]2)cc1` (stereo partly drawn) [Example 5, N-[6-[4-(N-Acetyl-L-alanylamino)phenyl]-1,2-dihydro-2-oxonicotinyl]-6-[D-2-amino-2-phenylacetamido]-3-acetoxymethyl-3-cephem-4-carboxylic acid], the MIC with Pseudomonas #28 amounted to 6.3 µg/mL (≈ 8.62 µM); against Strep. fec. MGH 2 it was 25 µg/mL (≈ 34.2 µM); against Pseudomonas BRK 12-4-4, 12.5 µg/mL (≈ 17.1 µM); in the test on Klebs. Pneum. MGH 2, 12.5 µg/mL (≈ 17.1 µM); in the test on Pseudomonas UI 18, 6.3 µg/mL (≈ 8.62 µM); in the test with Staph UC76, 0.8 µg/mL (≈ 1.09 µM). Besides, the MIC is 12.5 µg/mL (≈ 17.1 µM) against Entero Cloac. IM 11; 1.6 µg/mL (≈ 2.19 µM) in the test with E. Coli. Vogel; 50 µg/mL (≈ 68.4 µM) in the test on Serr. Mar. IMM 16; 1.6 µg/mL (≈ 2.19 µM) with Staph S 18713; 25 µg/mL (≈ 34.2 µM) against Prot Vulg.; 12.5 µg/mL (≈ 17.1 µM) in the test with E. Coli. Brig.

With `CC(=O)OCC1=C(C(=O)O)N2C(=O)C(NC(=O)[C@H](NC(=O)c3ccc(-c4ccc(NC(=O)[C@@H]5CCC(=O)N5)cc4)[nH]c3=O)c3ccccc3)C2SC1` (stereo partly drawn) [Example 6, N-[6-[4-(L-Pyroglutamylamino)phenyl]-1,2-dihydro-2-oxonicotinyl]-7-[D-2-amino-2-phenylacetamido]-3-acetoxymethyl-3-cephem-4-carboxylic acid], the MIC is 12.5 µg/mL (≈ 17.2 µM) in the test on Pseudomonas #28; 25 µg/mL (≈ 34.3 µM) with Strep. fec. MGH 2; 12.5 µg/mL (≈ 17.2 µM) with Pseudomonas BRK 12-4-4; 6.3 µg/mL (≈ 8.65 µM) against Klebs. Pneum. MGH 2; 6.3 µg/mL (≈ 8.65 µM) in the test on Pseudomonas UI 18; 0.8 µg/mL (≈ 1.1 µM) with Staph UC76. Further, the MIC is 12.5 µg/mL (≈ 17.2 µM) against Entero Cloac. IM 11; 3.1 µg/mL (≈ 4.25 µM) in the test on E. Coli. Vogel; 50 µg/mL (≈ 68.6 µM) in the test on Serr. Mar. IMM 16; 3.1 µg/mL (≈ 4.25 µM) with Staph S 18713; 25 µg/mL (≈ 34.3 µM) in the test on Prot Vulg.; 25 µg/mL (≈ 34.3 µM) in the test on E. Coli. Brig.

In the case of `Cn1nnnc1SCC1=C(C(=O)O)N2C(=O)C(NC(=O)[C@H](NC(=O)c3ccc(-c4ccc(NC(=O)[C@@H]5CCC(=O)N5)cc4)[nH]c3=O)c3ccccc3)C2SC1` (stereo partly drawn) [Example 7, N-[6-[4-(L-Pyroglutamylamino)phenyl]-1,2-dihydro-2-oxonicotinyl]-7-[D-2-amino-2-phenylacetamido]-3-[[(1-methyl-1H-tetrazol-5-yl)thio]methyl]-3-cephem-4-carboxylic acid], the MIC in the test on Pseudomonas #28 worked out at 6.3 µg/mL (≈ 8.03 µM); in the test on Strep. fec. MGH 2, 12.5 µg/mL (≈ 15.9 µM); against Pseudomonas BRK 12-4-4 it was 6.3 µg/mL (≈ 8.03 µM); in the test with Klebs. Pneum. MGH 2 it was 1.6 µg/mL (≈ 2.04 µM); against Pseudomonas UI 18, 6.3 µg/mL (≈ 8.03 µM); in the test with Staph UC76, 0.4 µg/mL (≈ 0.51 µM). The MIC turned out to be 3.1 µg/mL (≈ 3.95 µM) against Entero Cloac. IM 11; 0.8 µg/mL (≈ 1.02 µM) in the test with E. Coli. Vogel; 12.5 µg/mL (≈ 15.9 µM) with Serr. Mar. IMM 16; 3.1 µg/mL (≈ 3.95 µM) in the test on Staph S 18713; 12.5 µg/mL (≈ 15.9 µM) in the test with Prot Vulg.; 3.1 µg/mL (≈ 3.95 µM) in the test on E. Coli. Brig.

As to `CC(=O)N[C@H](C)C(=O)Nc1ccc(-c2ccc(C(=O)N[C@@H](C(=O)NC3C(=O)N4C(C(=O)O)=C(COC(C)=O)CSC34)c3ccc(O)cc3)c(=O)[nH]2)cc1` (stereo partly drawn) [Example 8, N-[6-[4-(N-Acetyl-D-alanylamino)phenyl]-1,2-dihydro-2-oxonicotinyl]-7-[D-2-amino-2-(4-hydroxyphenyl)acetamido]-3-acetoxymethyl-3-cephem-4-carboxylic acid], the MIC in the test with Pseudomonas #28 turned out to be 1.6 µg/mL (≈ 2.14 µM); in the test with Strep. fec. MGH 2, 12.5 µg/mL (≈ 16.7 µM); in the test on Pseudomonas BRK 12-4-4, 6.3 µg/mL (≈ 8.44 µM); in the test with Klebs. Pneum. MGH 2 it was 6.3 µg/mL (≈ 8.44 µM); in the test with Pseudomonas UI 18, 3.1 µg/mL (≈ 4.15 µM); against Staph UC76, 1.6 µg/mL (≈ 2.14 µM). Moreover, the MIC with Entero Cloac. IM 11 is 12.5 µg/mL (≈ 16.7 µM); against E. Coli. Vogel, 3.1 µg/mL (≈ 4.15 µM); against Serr. Mar. IMM 16, 50 µg/mL (≈ 67 µM); against Staph S 18713, 6.3 µg/mL (≈ 8.44 µM); in the test with Prot Vulg., 12.5 µg/mL (≈ 16.7 µM); in the test on E. Coli. Brig, 12.5 µg/mL (≈ 16.7 µM).

Values taken from patent US4311698A, “Aminoacid derivatives of cephalosporin compounds” (priority 1980, dated 1982).
